Measurements as given in patent publication US9981960B2, “Pyrrolidine compound and application as melanocortin receptor agonist” (MITSUBISHI TANABE PHARMA CORPORATION, priority 2014, dated 2018).

Target: T1, Human MC1R (Homo sapiens, UniProt Q01726)
T1 construct: endogenous in cells; host or cells: human melanoma cell line HBL
Experiment: MCR agonist measurement (cAMP measurement), human MC1R agonist activity in human melanoma cell line HBL
Format: cell-based
Details: HBL cells; for EC50: 37° C. for 30 minutes, intracellular cAMP by fluorescence method; for Human MC1R IA %: Intrinsic Activity, vehicle cAMP = 0%, αMSH at 10^-6 M = 100%
Method: (1) Method for Culturing Cells
Human MC1R agonist activity measurement was carried out by using human melanoma cell line HBL. Culture of HBL: F-10 Nutrient Mixture containing 10% FCS and Penicillin-streptomycin was used in the culture.
(2) cAMP Assay and Data Calculation
Each compound solution having each concentration was mixed with cAMP assay buffer (HBSS (Hank's Balanced Salt Solution) containing 10 mM HEPES and 0.1% BSA), and dispensed into 96 well plate. HBL was suspended in cAMP assay buffer containing 0.5 mM IBMX so that the concentrate became 5×10^4/mL, dispensed into the above 96 well plate, then mixed, left to stand at 37° C. for 30 minutes, and then the intracellular […] concentration was measured by fluorescence method using Envision (ex. 320 nm, em. 590 nm and 665 nm).

T1 sequence (Q01726 whole entry): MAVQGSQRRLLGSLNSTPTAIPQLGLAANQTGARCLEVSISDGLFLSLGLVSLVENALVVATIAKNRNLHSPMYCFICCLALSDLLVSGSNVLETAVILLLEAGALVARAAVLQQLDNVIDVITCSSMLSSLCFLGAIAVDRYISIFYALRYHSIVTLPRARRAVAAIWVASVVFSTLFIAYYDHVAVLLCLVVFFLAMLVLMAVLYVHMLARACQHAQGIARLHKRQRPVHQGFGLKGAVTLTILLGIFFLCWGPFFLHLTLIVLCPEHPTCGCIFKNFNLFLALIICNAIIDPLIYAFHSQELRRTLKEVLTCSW

Structure (SMILES) | EC50 | Human MC1R IA %
COc1ccc([C@@H]2CN(C3CCOC3)C[C@@]2(F)C(=O)N2CCC(c3ccc(C(F)(F)F)cc3N3CCC(C(=O)O)CC3)CC2)cc1 (stereo partly shown) [Example 290] | 115 nM | 69%
COc1ccc([C@@H]2CN(C(C)(C)C)C[C@@]2(F)C(=O)N2CCC(c3ccc(C(F)(F)F)cc3OCCCc3nnn[nH]3)CC2)cc1.Cl [Example 280, [(3R,4R)-1-tert-butyl-3-fluoro-4-(4-methoxyphenyl)pyrrolidin-3-yl](4-{2-[3-(1H-tetrazol-5-yl)propoxy]-4-(trifluoromethyl)phenyl}piperidin-1-yl)methanone hydrochloride] | 42 nM | 86%
COC[C@H]1CN(C(=O)[C@]2(F)CN(C3CCOCC3)C[C@H]2c2ccc(OC)cc2)C[C@@H]1c1ccc(C(F)(F)F)cc1N1CCC(c2nnn[nH]2)CC1.Cl.Cl [Example 279, [(3R,4R)-3-fluoro-4-(4-methoxyphenyl)-1-(tetrahydro-2H-pyran-4-yl)pyrrolidin-3-yl][(3R,4S)-3-(methoxymethyl)-4-{2-[4-(1H-tetrazol-5-yl)piperidin-1-yl]-4-(trifluoromethyl)phenyl}pyrrolidin-1-yl]methanone dihydrochloride] | 59 nM | 90%
COc1ccc([C@@H]2CN(C(C)(C)C)C[C@@]2(F)C(=O)N2CCC(c3ccc(C(F)(F)F)cc3OCCCC(=O)NS(C)(=O)=O)CC2)cc1 [Example 273] | 13 nM | 79%
COC[C@@H]1C[C@@H](c2ccc(C(F)(F)F)cc2N2CCC(C(=O)O)CC2)CN1C(=O)[C@]1(F)CN(C2CCOCC2)C[C@H]1c1ccc(OC)cc1 [Example 137] | 7.3 nM | 106%
COc1ccc([C@@H]2CN(C(C)(C)C)C[C@@]2(F)C(=O)N2CCC(c3ccc(C(F)(F)F)cc3C(N)=O)CC2)cc1 [Example 267] | 80 nM | 112%
COC[C@H]1CN(C(=O)[C@]2(F)CN(c3ccc(C)nn3)C[C@H]2c2ccc(OC)cc2)C[C@@H]1c1ccc(C(F)(F)F)cc1N1CCC(C(=O)O)CC1 [Example 63] | 24 nM | 92%
COc1ccc([C@@H]2CN(CCCS(=O)(=O)N3CCCC3)C[C@@]2(F)C(=O)N2CCC(c3ccc(C(F)(F)F)cc3N3CCC(C(=O)O)CC3)CC2)cc1 [Example 45] | 23 nM | 105%
COc1ccc([C@@H]2CN(C3CCCC3)C[C@@]2(F)C(=O)N2C[C@H](c3ccc(F)cc3N3CCC(C(=O)O)CC3)[C@@H](C)C2)cc1 [Example 100] | 9.7 nM | 90%
COc1ccc([C@@H]2CN(CCCC(=O)N(C)C)C[C@@]2(F)C(=O)N2CCC(c3ccc(C(F)(F)F)cc3N3CCC(C(=O)O)CC3)CC2)cc1 [Example 304] | 8.7 nM | 89%
COC[C@H]1CN(C(=O)[C@]2(F)CN(C3CCCC3)C[C@H]2c2ccc(OC)cc2)C[C@@H]1c1ccc(OC(F)(F)F)cc1N1CCC(C(=O)O)CC1 [Example 130] | 11 nM | 76%
COc1ccc([C@@H]2CN(C(C)(C)C)C[C@@]2(F)C(=O)N2CCC(c3ccc(C(F)F)cc3N3CCC(C(=O)O)CC3)CC2)cc1 [Example 198] | 45 nM | 66%
COC[C@H]1CN(C(=O)[C@]2(OC)CN(C3CCCC3)C[C@H]2c2ccc(OC)cc2)C[C@@H]1c1ccc(C(F)(F)F)cc1N1CCC(C(=O)O)CC1 [Example 125] | 24 nM | 74%
COC[C@@H]1C[C@@H](c2ccc(C(F)(F)F)cc2N2CCC(C(=O)O)CC2)CN1C(=O)[C@]1(F)CN(C2CCCCC2)C[C@H]1c1ccc(OC)cc1 [Example 138] | 0.98 nM | 111%
COC[C@H]1CN(C(=O)[C@]2(F)CN(C3CCCC3)C[C@H]2c2ccc(C)cc2)C[C@@H]1c1ccc(C(F)(F)F)cc1N1CCC(C(=O)O)CC1 [Example 22] | 17 nM | 74%
COC[C@H]1CN(C(=O)[C@]2(F)CN(c3ccnc(OC)c3)C[C@H]2c2ccc(OC)cc2)C[C@@H]1c1ccc(C(F)(F)F)cc1N1CCC(C(=O)O)CC1 [Example 61] | 30 nM | 69%
COC[C@H]1CN(C(=O)[C@]2(F)CN([C@H]3CC[C@H](OC)CC3)C[C@H]2c2ccc(OC)cc2)C[C@@H]1c1ccc(C(F)(F)F)cc1N1CCC(C)(C(=O)O)CC1 [Example 103] | 14 nM | 102%
COc1ccc([C@@H]2CN([C@H]3CC[C@H](OC)CC3)C[C@@]2(F)C(=O)N2CCC(c3ccc(C(F)(F)F)cc3N3CCC(C(=O)O)CC3)CC2)cc1 [Example 98] | 15 nM | 89%
COc1ccc([C@@H]2CN(C(C)(C)C)C[C@@]2(F)C(=O)N2C[C@H](C(=O)N(C)C)[C@@H](c3ccc(C(F)(F)F)cc3N3CCC(C(=O)O)CC3)C2)cc1.Cl.Cl [Example 226, 1-{2-[(3S,4R)-1-{[(3R,4R)-1-tert-butyl-3-fluoro-4-(4-methoxyphenyl)pyrrolidin-3-yl]carbonyl}-4-(dimethylcarbamoyl)pyrrolidin-3-yl]-5-(trifluoromethyl)phenyl}piperidine-4-carboxylic acid dihydrochloride] | 47 nM | 132%
CCO[C@H]1CC[C@H](N2C[C@@H](c3ccc(OC)cc3)[C@](OC)(C(=O)N3C[C@H](c4ccc(C(F)(F)F)cc4N4CCC(C(=O)O)CC4)C[C@H]3COC)C2)CC1 [Example 146] | 0.75 nM | 118%
COC[C@H]1CN(C(=O)[C@]2(F)CN([C@H]3CC[C@H](OC)CC3)C[C@H]2c2ccc(OC)cc2)C[C@@H]1c1ccc(C(F)(F)F)cc1N1CCC(C(=O)N(C)C)CC1 [Example 256] | 3 nM | 115%
CCO[C@H]1CC[C@@H](N2C[C@@H](c3ccc(OC)cc3)[C@](F)(C(=O)N3C[C@H](COC)[C@@H](c4ccc(C(F)(F)F)cc4N4CCC(C(=O)O)CC4)C3)C2)CC1 [Example 119] | 15 nM | 53%
COC[C@@H]1C[C@@H](c2ccc(C(F)(F)F)cc2N2CCC(C(=O)O)CC2)CN1C(=O)[C@]1(F)CN(c2ccnc(C)n2)C[C@H]1c1ccc(OC)cc1 [Example 67] | 2 nM | 78%
COC[C@@H]1C[C@@H](c2ccc(C(F)(F)F)cc2N2CCC(C(=O)O)CC2)CN1C(=O)[C@]1(OC)CN([C@H]2CC[C@H](OC(C)C)CC2)C[C@H]1c1ccc(OC)cc1 [Example 160] | 0.67 nM | 106%
COc1ccc([C@@H]2CN(C(C)(C)C)C[C@@]2(F)C(=O)N2CC(c3ccc(C(F)(F)F)cc3N3CCC(C(=O)N(C)C)CC3)C2)cc1 [Example 249] | 37 nM | 149%
COc1ccc([C@@H]2CN(C(C)(C)C)C[C@@]2(F)C(=O)N2C[C@H](c3ccc(C(F)(F)F)cc3N3CCC(C(=O)O)CC3)[C@@H](C#N)C2)cc1.Cl.Cl [Example 227, 1-{2-[(3S,4R)-1-{[(3R,4R)-1-tert-butyl-3-fluoro-4-(4-methoxyphenyl)pyrrolidin-3-yl]carbonyl}-4-cyanopyrrolidin-3-yl]-5-(trifluoromethyl)phenyl}piperidine-4-carboxylic acid dihydrochloride] | 85 nM | 114%
